Measured values as given in article PMC12250302, “Synthesis, Antimicrobial Activities, and Model of Action of Novel Tetralone Derivatives Containing Aminoguanidinium Moiety” (International Journal of Molecular Sciences, 2025).
Values after ≈ are worked out from the molar mass of the structure shown. Like-named read-outs stand apart in the source and are kept apart here. Blank lines part the entries; values can stand above or below the compound they belong to.

How the values were obtained:
Test in all cases: MIC and MBC testing, broth microdilution
E. faecium ATCC 35667 = assay type: cell-based, Enterococcus faecium; details: E. faecium ATCC 35667; for MIC: 18 h
From the text: (§1) The minimum inhibitory concentrations (MICs) and minimum bactericidal concentrations (MBCs) of the synthesized compounds effective against ESKAPE strains, S. aureus clinical isolates, and MRSA were investigated by the broth dilution method. Levofloxacin is a broad-spectrum antibacterial agent that is widely used in the treatment of ESKAPE infections. Therefore, levofloxacin was selected as the positive control for the preliminary activity screening. DMSO (0.1%) was selected as the negative control.
(§2) The minimum inhibitory concentration (MIC) of all synthesized compounds was tested by the broth microdilution method. In brief, compounds dissolved in DMSO were diluted twice continuously in a 96-well plate with MH broth. The ESKAPE pathogens (E. coli ATCC 25922, S. aureus ATCC 29213, K. pneumoniae ATCC 700603, A. baumannii ATCC 19606, P. aeruginosa ATCC 27853, and E. faecium ATCC 35667), clinical S. aureus isolates (LMY45, LMY46, LMY47, and LMY48) and methicillin-resistant Staphylococcus aureus (MRSA-1 and MRSA-2) were cultured in MH broth to logarithmic growth phase and then diluted to 1 × 10^6 CFU/mL in MH broth. Subsequently, the diluted bacterial solution was mixed with the diluted compound solution in a 96-well plate and incubated at 37 °C for a duration of 18 h. The MIC of the compounds was recorded as the lowest concentration at which no visible growth was observed. […] Each concentration was replicated thrice.

S. aureus ATCC 29213 = assay type: cell-based, Staphylococcus aureus; details: S. aureus ATCC 29213; for MIC: 18 h
From the text: as §1, §2

[1] = tested on: K. pneumoniae ATCC 700603; assay type: cell-based, Klebsiella pneumoniae; details: Klebsiella pneumoniae; for MIC: ATCC700603, 18 h, read-out: MIC; for MBC: ATCC700603, read-out: MBC
From the text: as §1, §2

A. baumannii ATCC 19606 = assay type: cell-based, Acinetobacter baumannii
From the text: as §1, §2

P. aeruginosa ATCC 27853 = assay type: cell-based, Pseudomonas aeruginosa
From the text: as §1, §2

E. coli ATCC 25922 = assay type: cell-based, Escherichia coli
From the text: as §1, §2

MRSA-1 = assay type: cell-based, Staphylococcus aureus; details: MRSA-1; for MIC: 18 h
Method: (§3) Furthermore, the MBC values of the compounds were detected.
as §2, with “h.” for “h. The MIC of the compounds was recorded as the lowest concentration at which no visible growth was observed.”

MRSA-2 = assay type: cell-based, Staphylococcus aureus; details: MRSA-2; for MIC: 18 h
Method: as §3
as §2, with “h.” for “h. The MIC of the compounds was recorded as the lowest concentration at which no visible growth was observed.”

[2] = tested on: clinical S. aureus isolate LMY45; assay type: cell-based, Staphylococcus aureus; details: LMY45; for MIC: 18 h
Method: as §3
as §2, with “h.” for “h. The MIC of the compounds was recorded as the lowest concentration at which no visible growth was observed.”

[3] = tested on: clinical S. aureus isolate LMY46; assay type: cell-based, Staphylococcus aureus; details: LMY46; for MIC: 18 h
Method: as §3
as §2, with “h.” for “h. The MIC of the compounds was recorded as the lowest concentration at which no visible growth was observed.”

[4] = tested on: clinical S. aureus isolate LMY47; assay type: cell-based, Staphylococcus aureus; details: LMY47; for MIC: 18 h
Method: as §3
as §2, with “h.” for “h. The MIC of the compounds was recorded as the lowest concentration at which no visible growth was observed.”

[5] = tested on: clinical S. aureus isolate LMY48; assay type: cell-based, Staphylococcus aureus; details: LMY48; for MIC: 18 h
Method: as §3
as §2, with “h.” for “h. The MIC of the compounds was recorded as the lowest concentration at which no visible growth was observed.”

[6] = Enterococcus faecium, ATCC35667, read-out: MIC
[7] = Enterococcus faecium, ATCC35667, read-out: MBC
[8] = Staphylococcus aureus, ATCC29213, read-out: MIC
[9] = Staphylococcus aureus, ATCC29213, read-out: MBC
[10] = Acinetobacter baumannii, ATCC19606, 18 h, read-out: MIC
[11] = Acinetobacter baumannii, ATCC19606, read-out: MBC
[12] = Pseudomonas aeruginosa, ATCC27853, 18 h, read-out: MIC
[13] = Escherichia coli, ATCC25922, 18 h, read-out: MIC
[14] = Escherichia coli, ATCC25922, read-out: MBC
[15] = Staphylococcus aureus, read-out: MIC
[16] = Staphylococcus aureus, read-out: MBC

MIC (E. faecium ATCC 35667; [6]): 4 µg/mL (≈ 11.6 µM)
MIC (S. aureus ATCC 29213; [8]): 2 µg/mL (≈ 5.81 µM)
MIC [1]: 32 µg/mL (≈ 92.9 µM)
MIC (A. baumannii ATCC 19606; [10]): 8 µg/mL (≈ 23.2 µM)
MIC (P. aeruginosa ATCC 27853; [12]): > 32 µg/mL
MIC (E. coli ATCC 25922; [13]): 8 µg/mL (≈ 23.2 µM)
MIC (MRSA-1; [15]): 2 µg/mL (≈ 5.81 µM)
MIC (MRSA-2; [15]): 2 µg/mL (≈ 5.81 µM)
MIC [2, 15]: 2 µg/mL (≈ 5.81 µM)
MIC [3, 15]: 2 µg/mL (≈ 5.81 µM)
MIC [4, 15]: 2 µg/mL (≈ 5.81 µM)
MIC [5, 15]: 2 µg/mL (≈ 5.81 µM)
Compound: [H]/N=C(\N)NN=C1CCCc2cc(OCc3cc(F)ccc3F)ccc21 [Compound 1E, (E)-2-(6-((2,5-difluorobenzyl)oxy)-3,4-dihydronaphthalen-1(2H)-ylidene)hydrazine-1-carboximidamide]
MBC (E. faecium ATCC 35667; [7]): 16 µg/mL (≈ 46.5 µM)
MBC (S. aureus ATCC 29213; [9]): 16 µg/mL (≈ 46.5 µM)
MBC [1]: 32 µg/mL (≈ 92.9 µM)
MBC (A. baumannii ATCC 19606; [11]): 8 µg/mL (≈ 23.2 µM)
MBC (E. coli ATCC 25922; [14]): 8 µg/mL (≈ 23.2 µM)
MBC (MRSA-1; [16]): 32 µg/mL (≈ 92.9 µM)
MBC (MRSA-2; [16]): 8 µg/mL (≈ 23.2 µM)
MBC [2, 16]: 4 µg/mL (≈ 11.6 µM)
MBC [3, 16]: 8 µg/mL (≈ 23.2 µM)
MBC [4, 16]: 8 µg/mL (≈ 23.2 µM)
MBC [5, 16]: 2 µg/mL (≈ 5.81 µM)

MIC (E. faecium ATCC 35667; [6]): 8 µg/mL (≈ 23.2 µM)
MIC (S. aureus ATCC 29213; [8]): 4 µg/mL (≈ 11.6 µM)
MIC [1]: 32 µg/mL (≈ 92.9 µM)
MIC (A. baumannii ATCC 19606; [10]): 16 µg/mL (≈ 46.5 µM)
MIC (P. aeruginosa ATCC 27853; [12]): > 32 µg/mL
MIC (E. coli ATCC 25922; [13]): 16 µg/mL (≈ 46.5 µM)
MIC (MRSA-1; [15]): 4 µg/mL (≈ 11.6 µM)
MIC (MRSA-2; [15]): 4 µg/mL (≈ 11.6 µM)
MIC [2, 15]: 4 µg/mL (≈ 11.6 µM)
MIC [3, 15]: 4 µg/mL (≈ 11.6 µM)
MIC [4, 15]: 4 µg/mL (≈ 11.6 µM)
MIC [5, 15]: 4 µg/mL (≈ 11.6 µM)
Compound: [H]/N=C(\N)NN=C1CCCc2cc(OCc3c(F)cccc3F)ccc21 [Compound 1F, (E)-2-(6-((2,6-difluorobenzyl)oxy)-3,4-dihydronaphthalen-1(2H)-ylidene)hydrazine-1-carboximidamide]
MBC (E. faecium ATCC 35667; [7]): 16 µg/mL (≈ 46.5 µM)
MBC (S. aureus ATCC 29213; [9]): 16 µg/mL (≈ 46.5 µM)
MBC [1]: 32 µg/mL (≈ 92.9 µM)
MBC (A. baumannii ATCC 19606; [11]): 16 µg/mL (≈ 46.5 µM)
MBC (E. coli ATCC 25922; [14]): 16 µg/mL (≈ 46.5 µM)
MBC (MRSA-1; [16]): 32 µg/mL (≈ 92.9 µM)
MBC (MRSA-2; [16]): 16 µg/mL (≈ 46.5 µM)
MBC [2, 16]: 8 µg/mL (≈ 23.2 µM)
MBC [3, 16]: > 32 µg/mL
MBC [4, 16]: 8 µg/mL (≈ 23.2 µM)
MBC [5, 16]: 16 µg/mL (≈ 46.5 µM)

MIC (E. faecium ATCC 35667; [6]): ≤ 1 µg/mL
MIC (S. aureus ATCC 29213; [8]): ≤ 1 µg/mL
MIC [1]: ≤ 1 µg/mL
MIC (A. baumannii ATCC 19606; [10]): ≤ 1 µg/mL
MIC (P. aeruginosa ATCC 27853; [12]): ≤ 1 µg/mL
MIC (E. coli ATCC 25922; [13]): ≤ 1 µg/mL
Compound: C[C@H]1COc2c(N3CCN(C)CC3)c(F)cc3c(=O)c(C(=O)O)cn1c23 [Levofloxacin, reference compound]
MBC (E. faecium ATCC 35667; [7]): 2 µg/mL (≈ 5.53 µM)
MBC (S. aureus ATCC 29213; [9]): ≤ 1 µg/mL
MBC [1]: 4 µg/mL (≈ 11.1 µM)
MBC (A. baumannii ATCC 19606; [11]): 2 µg/mL (≈ 5.53 µM)
MBC (P. aeruginosa ATCC 27853; Pseudomonas aeruginosa, ATCC27853, read-out: MBC): 2 µg/mL (≈ 5.53 µM)
MBC (E. coli ATCC 25922; [14]): ≤ 1 µg/mL

Compound: (E)-2-(6-(4-isopropylphenoxy)-3,4-dihydronaphthalen-1(2H)-ylidene)hydrazine-1-carboximidamide [Compound 1X]
MBC (E. faecium ATCC 35667): 4 µg/mL
MIC (E. faecium ATCC 35667): 2 µg/mL
MBC (S. aureus ATCC 29213): 4 µg/mL
MIC (S. aureus ATCC 29213): 2 µg/mL
MBC (A. baumannii ATCC 19606): 8 µg/mL
MIC (A. baumannii ATCC 19606; 18 h): 4 µg/mL
MBC (P. aeruginosa ATCC 27853): > 32 µg/mL
MIC (P. aeruginosa ATCC 27853; 18 h): 32 µg/mL
MBC (E. coli ATCC 25922): 8 µg/mL
MIC (E. coli ATCC 25922; 18 h): 4 µg/mL
MBC (MRSA-1): 8 µg/mL
MIC (MRSA-1): 4 µg/mL
MBC (MRSA-2): 4 µg/mL
MIC (MRSA-2): 1 µg/mL
MBC [2]: 4 µg/mL
MIC [2]: 2 µg/mL
MBC [3]: 2 µg/mL
MIC [3]: 2 µg/mL
MBC [4]: 8 µg/mL
MIC [4]: 2 µg/mL
MBC [5]: 8 µg/mL
MIC [5]: 2 µg/mL
